Results from ChEMBL document CHEMBL1128040, “Acyl CoA:cholesterol acyltransferase (ACAT) inhibitors: heterocyclic bioisosteres for the urea group in DuP 128” (Bioorg Med Chem Lett, 1995).

Assays:
[1] = molecular target: T1, Sterol O-acyltransferase 1 (Mus musculus, UniProt Q61263); assay: Inhibition of Acyl coenzyme A:cholesterol acyltransferase in J774 Macrophage cell culture; assay type: cell-based
T1 sequence (Q61263 whole entry): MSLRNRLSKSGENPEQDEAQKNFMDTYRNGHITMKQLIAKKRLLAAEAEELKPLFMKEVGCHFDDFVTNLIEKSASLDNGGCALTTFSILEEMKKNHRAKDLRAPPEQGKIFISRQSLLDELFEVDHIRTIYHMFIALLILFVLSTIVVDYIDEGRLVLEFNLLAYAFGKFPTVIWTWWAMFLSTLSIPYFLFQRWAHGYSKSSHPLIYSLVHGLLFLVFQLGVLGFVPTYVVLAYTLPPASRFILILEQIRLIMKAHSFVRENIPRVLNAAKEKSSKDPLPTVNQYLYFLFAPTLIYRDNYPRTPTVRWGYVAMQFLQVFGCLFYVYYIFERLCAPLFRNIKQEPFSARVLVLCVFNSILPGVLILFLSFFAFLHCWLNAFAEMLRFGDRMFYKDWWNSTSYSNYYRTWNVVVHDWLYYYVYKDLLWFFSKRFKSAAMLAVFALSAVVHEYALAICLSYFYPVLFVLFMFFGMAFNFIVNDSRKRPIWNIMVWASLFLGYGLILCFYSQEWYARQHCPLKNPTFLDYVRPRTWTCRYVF

[2] = molecular target: T2, Sterol O-acyltransferase 1 (Rattus norvegicus, UniProt O70536); assay: In vitro inhibition of Acyl coenzyme A:cholesterol acyltransferase in rat hepatic microsomes was measured by using AIV assay; design: species or system Liver
T2 sequence (O70536 whole entry): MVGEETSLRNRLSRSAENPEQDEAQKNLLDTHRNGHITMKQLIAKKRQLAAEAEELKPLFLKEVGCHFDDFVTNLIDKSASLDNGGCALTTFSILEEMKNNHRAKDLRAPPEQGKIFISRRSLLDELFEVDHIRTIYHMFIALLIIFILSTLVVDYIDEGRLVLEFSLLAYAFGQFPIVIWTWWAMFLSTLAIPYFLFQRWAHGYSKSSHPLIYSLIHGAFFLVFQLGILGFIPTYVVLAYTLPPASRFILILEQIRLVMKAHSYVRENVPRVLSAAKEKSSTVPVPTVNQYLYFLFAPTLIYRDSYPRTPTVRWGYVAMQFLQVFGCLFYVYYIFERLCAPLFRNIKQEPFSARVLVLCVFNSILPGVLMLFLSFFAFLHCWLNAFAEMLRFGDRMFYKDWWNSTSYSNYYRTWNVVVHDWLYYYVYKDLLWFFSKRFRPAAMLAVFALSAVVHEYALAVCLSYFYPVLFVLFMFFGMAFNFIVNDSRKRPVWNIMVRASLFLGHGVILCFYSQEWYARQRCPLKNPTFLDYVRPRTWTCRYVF

Cricetinae gen. sp. [3] = assay: Tested for effective dose required to lower the serum cholesterol levels in hamsters; assay type: functional, Cricetulus griseus
Cricetinae gen. sp. [4] = assay: In vivo cholesterol lowering at a single dose of 25 mg/kg in the hamster was determined; assay type: functional, Cricetulus griseus

Row | SMILES | IC50 [1] | IC50 [2] | ED50 (Cricetinae gen. sp. [3]) | Activity (Cricetinae gen. sp. [4])
1 | c1ccc(-c2nc(SCc3cccc(C4(CNc5nc6ccccc6o5)CCCC4)c3)[nH]c2-c2ccccc2)cc1 | 5900 nM |  |  | 
2 | CCN(CCCCCSc1nc(-c2ccccc2)c(-c2ccc(SC)cc2)[nH]1)c1nc2ccccc2o1 | 500 nM | 700 nM |  | 
3 | CCCCCCCN(CCCCCSc1nc(-c2ccccc2)c(-c2ccccc2)[nH]1)C(=O)Nc1ccc(F)cc1F [LECIMIBIDE] | 1000 nM |  | 3 mg/kg | 
4 | CCCCCCCN(CCCCCSc1nc(-c2ccccc2)c(-c2ccccc2)[nH]1)c1nc2ccccc2s1 | 660 nM |  |  | 
5 | CN(C)c1ccc(-c2nc(SCCCCCSc3nc(-c4ccc(N(C)C)cc4)c(-c4ccc(N(C)C)cc4)[nH]3)[nH]c2-c2ccc(N(C)C)cc2)cc1 | 60 nM | 90 nM |  | 
6 | COc1ccc(-c2nc(SCCCCCSc3nc4ncncc4[nH]3)[nH]c2-c2ccc(OC)cc2)cc1 | 880 nM |  |  | 
7 | CCN(CCCCCSc1nc(-c2ccc(OC)cc2)c(-c2ccc(OC)cc2)[nH]1)c1nc2ccccc2o1 | 90 nM | 140 nM |  | 
8 | COc1ccc(-c2nc(SCCCCCn3c(Nc4ccccc4)nc4ccccc43)[nH]c2-c2ccc(OC)cc2)cc1 | 640 nM | 750 nM |  | 
9 | COc1ccc(-c2nc(SCCCCCSc3nc(-c4ccc(OC)cc4)c(-c4ccc(OC)cc4)[nH]3)[nH]c2-c2ccc(OC)cc2)cc1 | 200 nM | 220 nM |  | 
10 | COc1ccc(-c2nc(SCCCCCn3c(SC)nc4ccccc43)[nH]c2-c2ccc(OC)cc2)cc1 | 950 nM | 1400 nM |  | 
11 | CCCCCCCN(CCCCCSc1nc(-c2ccc(OC)cc2)c(-c2ccc(OC)cc2)[nH]1)c1nc2ccccc2[nH]1 | 490 nM | 90 nM |  | 
12 | c1ccc(-c2nc(SCCCCCSc3ncnc4nc[nH]c34)[nH]c2-c2ccccc2)cc1 | 7510 nM |  |  | 
13 | Cc1cc(C)n(CCCCCSc2nc(-c3ccc(N(C)C)cc3)c(-c3ccc(N(C)C)cc3)[nH]2)n1 | 250 nM |  |  | 
14 | COCCOCCN(CCCCCSc1nc(-c2ccc(OC)cc2)c(-c2ccc(OC)cc2)[nH]1)c1nc2ccccc2o1 | 80 nM | 40 nM |  | 
15 | c1ccc(-c2nc(SCCCCCSc3nc(-c4ccccc4)c(-c4ccccc4)[nH]3)[nH]c2-c2ccccc2)cc1 | 6920 nM | 30 nM |  | 
16 | COc1ccc(-c2nc(SCCCCCn3c4ccccc4c4ccccc43)[nH]c2-c2ccc(OC)cc2)cc1 | 55700 nM | 50000 nM |  | 

Row | SMILES | IC50 [1] | IC50 [2] | ED50 (Cricetinae gen. sp. [3]) | Activity (Cricetinae gen. sp. [4])
17 | COc1ccc(-c2nc(SCCCCCSc3ncnc4nc[nH]c34)[nH]c2-c2ccc(OC)cc2)cc1 | 3650 nM |  |  | 
18 | CCCCCCCN(CCCCCSc1nc(-c2ccccc2)c(-c2ccccc2)[nH]1)c1nc2ccccc2o1 | 20 nM | 300 nM |  | 30%
19 | CCCCN(CCCCCSc1nc(-c2ccc(OC)cc2)c(-c2ccc(OC)cc2)[nH]1)c1nc2ccccc2o1 | 70 nM | 80 nM |  | 
20 | CCCCN(CCCCCSc1nc(-c2ccc(OC)cc2)c(-c2ccc(OC)cc2)[nH]1)c1nc2cc(C(C)(C)C)ccc2o1 | 70 nM | 80 nM |  | 
21 | CCCCCCCN(CCCCCSc1nc(-c2ccc(OC)cc2)c(-c2ccc(OC)cc2)[nH]1)c1nc2ccccc2o1 | 80 nM | 40 nM |  | 
22 | COc1ccc(-c2nc(SCCCCCn3c(C(C)C)nc4ccccc43)[nH]c2-c2ccc(OC)cc2)cc1 | 320 nM | 230 nM |  | 
23 | CCN(CCCCCSc1nc(-c2ccc(N(C)C)cc2)c(-c2ccc(N(C)C)cc2)[nH]1)c1nc2ccccc2o1 | 50 nM |  |  | 
24 | COc1ccc(-c2nc(SCCCCCSc3nc4ccccc4[nH]3)[nH]c2-c2ccc(OC)cc2)cc1 | 830 nM | 630 nM |  | 
25 | CCCCN(CCCCCSc1nc(-c2ccc(OC)cc2)c(-c2ccc(OC)cc2)[nH]1)c1nc2cc(Cl)c([N+](=O)[O-])cc2o1 | 1000 nM |  |  | 
26 | COc1ccc(-c2nc(SCCCCCSc3nc4c([nH]3)c(=O)n(C)c(=O)n4C)[nH]c2-c2ccc(OC)cc2)cc1 | 8330 nM |  |  | 
27 | CC(C)c1nc2ccccc2n1CCCCCSc1nc(-c2ccc(N(C)C)cc2)c(-c2ccc(N(C)C)cc2)[nH]1 | 80 nM | 400 nM |  | 
28 | CC(CCCSc1nc(-c2ccccc2)c(-c2ccccc2)[nH]1)(CNc1nc2ccccc2o1)c1ccccc1 (configuration not stated) | 5000 nM |  |  | 
29 | CC(C)c1nc2ccccc2n1CCCCCSc1nc(-c2ccccc2)c(-c2ccccc2)[nH]1 | 710 nM | 690 nM |  | 
30 | CN(C)c1ccc(-c2nc(SCCCCCNc3nc4ccccc4o3)[nH]c2-c2ccc(N(C)C)cc2)cc1 | 90 nM |  |  | 
31 | CCCCCCCN(CCCCSc1nc(-c2ccc(OC)cc2)c(-c2ccc(OC)cc2)[nH]1)c1nc2ccccc2o1 | 500 nM |  |  | 
32 | COc1ccc(-c2nc(SCC(C)(CSc3nc4ccccc4o3)c3ccccc3)[nH]c2-c2ccc(OC)cc2)cc1 (configuration not stated) | 3240 nM |  |  | 
